According to publication PMC12287261 (Scientific Reports, 2025):

Tested on: CamASNase
Assay: initial rates at varied L-asparagine, Lineweaver-Burk
Format: biochemical, Chryseomicrobium amylolyticum
Conditions: pH 7.4, 37 °C; L-asparagine 1 to 80 µM

SMILES: NC(=O)C[C@H](N)C(=O)O [L-asparagine]
- Km: 6.36 µM
